Experiments:
[1] = test system: mixed bacterial population previously isolated from an infected commercial corn mash; experiment: Low Dry Solids fermentation of 1% infected liquefied corn mash with AA13 polypeptides, HPLC analysis (Example 2); format: cell-based; settings: after 20 hrs of Low Dry Solids fermentation of corn mash; increasing doses; vs control
Method: Clean liquefied corn mash: Clean corn mash was prepared in our laboratories under typical liquefaction conditions using a blend of AA369 and Protease Pfu. […] Substrate is stored frozen and thawed before use.
Infected liquefied corn mash: Clean corn mash was inoculated with a mixed bacterial population previously isolated from an infected commercial corn mash. The infected mash was incubated with the inoculant for up to 24 hours at approximately 32° C. […] Substrate is frozen in 20% glycerol solution and then thawed before use.
1% Infected liquefied mash: Per every 100 g of “clean” mash, 1 g of infected mash is added and mixed thoroughly.
Low Dry Solids fermentation. 1% Infected Mash was diluted to 20% dry solids. 200 ppm target urea was added as an exogenous nitrogen source for yeast. Commercial glucoamylase GSA, was used at a dose of 0.6 AGU/g-dry solids. Yeast was pitched at a rate of 0.25 g/L. Experimental enzymes were dosed between 2 ppm and 100 ppm. Dosage were against dry solids.
Positive control: Penicillin was used at 25 ppm.
Negative control: No treatment was added.
Yeast, enzymes, and any additional tap water was added at approximately the same time to start fermentation. […]
Fermentations were sampled at various time points to examine soluble carbohydrates and organic acids. […] Analytes were quantified against internal standards. […]
Data was analyzed using SAS JMP statistical software.

multi-strain LAB culture = experiment: SSF of control mash with 1% w/w infected mash, AA13 candidates, HPLC of organic acids and ethanol (Example 3); format: cell-based; settings: SSF 32° C. up to 24 hours, 20% DS; for % delta Ethanol / % delta Lactic Acid: vs No Treatment
Method: A control mash was prepared in-house with an industry relevant blend of AA369 and Protease Pfu using a Lab-O-Mat incubator for 2 hours at 85° C. and 36% DS to simulate typical industry conditions. The mash was then frozen prior to use in SSF. An infected mash was prepared by infecting the control mash with a multi-strain LAB culture grown in MRS. The bacteria in control mash was incubated overnight, and then frozen with 20% glycerol. For this experiment, 1% weight/weight of the infected mash was mixed into the control mash. This mimics an infection event at a large-scale ethanol facility. For SSF, all mash was prepared with 1000 ppm of urea to aid with yeast fermentation. All treatments were dosed with a baseline commercial glucoamylase GSA, while AA13 candidates were dosed at either 10 ug/g-DS or 50 ug/g-DS. SSF was performed at 5 g scale with 10 uL/g rehydrated Ethanol Red yeast at 32° C. for up to 24 hours at 20% DS. At the end of fermentation, samples were deactivated with 50 uL of 40% sulfuric acid and then centrifuged. The supernatant was filtered through a 0.2 μm filter and then measured for soluble carbohydrates and organic acids using an ion-exchange H-column on HPLC.

For “Aspergillus terreus: AA13 polypeptide from Aspergillus terreus having the amino acid sequence of SEQ ID NO: 119”, the “lactic acid titers, dose response (FIG. 5)” value [1] was “reduced lactic acid titers compared to the control”, the “average Ethanol” value (multi-strain LAB culture; AA13 dose 10 ug/g-DS) was 77.1 g/L and the “average Lactic Acid” value (multi-strain LAB culture; AA13 dose 10 ug/g-DS) was 3.4 g/L. The “% delta Ethanol” value (multi-strain LAB culture; AA13 dose 10 ug/g-DS) was −0.7%, the “% delta Lactic Acid” value (multi-strain LAB culture; AA13 dose 10 ug/g-DS) was 1.3% and the “average Ethanol” value (multi-strain LAB culture; AA13 dose 50 ug/g-DS) was 78.0 g/L. The “average Lactic Acid” value (multi-strain LAB culture; AA13 dose 50 ug/g-DS) was 3.4 g/L, the “% delta Ethanol” value (multi-strain LAB culture; AA13 dose 50 ug/g-DS) was 0.4% and the “% delta Lactic Acid” value (multi-strain LAB culture; AA13 dose 50 ug/g-DS) was 1.3%.

Reference: patent US11795481B2, “Processes for producing a fermentation product” (Novozymes A/S, priority 2017, dated 2023)
